Test system: lung gene expression
Assay: RNA sequencing of lung tissue (BLM/EL244 vs BLM)
Assay type: in vivo, mouse
Settings: BLM/EL244 vs BLM, lung tissue
Procedure: RNA quality was assessed using an Agilent TapeStation 4150 with the High Sensitivity […] ScreenTape (Agilent), according to the manufacturer’s protocols. For library preparation, the QuantSeq 3’mRNA-Seq Library Prep Kit (Lexogen) was used according to manufacturer’s instructions. Briefly, 500 ng of RNA from each sample was used for first-strand synthesis, followed by RNA template removal, and second-strand synthesis initiated by random primers. In-line barcodes were introduced at this step, and this was followed by magnetic bead-based purification. The resulting libraries were amplified for 15 cycles and re-purified, with quantity and quality assessed on a Qubit 4 Fluorometer with the Invitrogen Qubit dsDNA HS Assay and an Agilent Tapestation 4150 with the High Sensitivity D1000 assay kit, respectively. The quantified libraries were pooled equimolarly; 50ng of total library mix was used for Adapter Conversion PCR Amplification using the Universal Library Conversion Kit (App-A), Version: V1.0 (MGI Tech Co., Ltd.), according to the manufacturer’s instructions.
The quantity and quality of the purified adapter conversion PCR (AC-PCR) product were evaluated on a Qubit 4 Fluorometer with the Invitrogen Qubit dsDNA HS Assay and on an Agilent Tapestation 4150 with the High Sensitivity D1000 assay kit, respectively. This was followed by DNA denaturation, Single-Strand Circularisation, Enzymatic Digestion, Enzymatic Digestion Product Cleanup and Quality Control steps on 1 pmol of AC-PCR product, according to the Universal Library Conversion Kit (App-A) User Manual (Version: A3).
Finally, 60 fmol of ssCirDNA were used for DNB preparation and sequencing on a DNBSEQ-G400 platform at the BSRC Alexander Fleming Genomics Facility, using a G400 App-A FCS SE100 High-throughput Sequencing Set (MGI Tech Co., Ltd.), according to the manufacturer’s instructions.
Alignment of the FASTQ files was performed against the mouse genome build mm10 using a custom Bash script.[143] Read counting on the 3′ UTRs and differential expression analysis were conducted using the metaseqR2 bioconductor package.[144] Genes corresponding to the following biotypes were excluded: polymorphic_pseudogene, processed_transcript, pseudogene, IG_V_pseudogene, misc_RNA, IG_C_gene, IG_J_gene, IG_D_gene, IG_LV_gene, TR_V_gene, TR_V_pseudogene, TEC, and processed_pseudogene. Gene counts were normalized with DESEQ[145] through metaseqR2. Genes with more than 10 counts in at least 50% of the samples were kept for further processing. For differential expression analysis, the PANDORA algorithm[146] was used to estimate a meta p-value integrating the results from the DESEQ, DESEQ2,[147] edgeR,[148] limma,[149] NBPSeq,[150] and NOISeq[151] algorithms. All additional parameters were set to default values.
Pathway enrichment analysis was performed for the Gene Ontology Biological process (BP) and Molecular Function (MF) terms through GeneCodis 4.[152] The volcano plots, scatterplots, Venn diagrams, and dot plots were generated using the ggplot2 Bioconductor package.

O=C1NC(=O)C(Cc2ccc(OCCC3CCN(C(=O)OCc4cc(Cl)cc(Cl)c4)CC3)cc2)S1 (stereo not shown) [EL244, 3,5-dichlorobenzyl 4-(2-(4-((2,4-dioxothiazolidin-5-yl)methyl)phenoxy)ethyl)piperidine-1-carboxylate]
1810020O05Rik log2 nFC: 1.58 | 1810020O05Rik nFC: 3.00 | 2410004I01Rik log2 nFC: 1.80 | 2410004I01Rik nFC: 3.47 | 9130230L23Rik log2 nFC: 1.34 | 9130230L23Rik nFC: 2.53 | 9330159F19Rik log2 nFC: 1.78 | 9330159F19Rik nFC: 3.43 | 9530026P05Rik log2 nFC: 3.17 | 9530026P05Rik nFC: 9.00 | A3galt2 log2 nFC: 2.32 | A3galt2 nFC: 5.00 | Acaa1b log2 nFC: 1.43 | Acaa1b nFC: 2.69 | Acot1 log2 nFC: 1.08 | Acot1 nFC: 2.11 | Acoxl log2 nFC: 1.23 | Acoxl nFC: 2.35 | Actc1 log2 nFC: 1.28 | Actc1 nFC: 2.42 | Adam3 log2 nFC: 1.67 | Adam3 nFC: 3.18 | Alas2 log2 nFC: 1.58 | Alas2 nFC: 2.99 | Ankrd63 log2 nFC: 1.34 | Ankrd63 nFC: 2.54 | Aqp9 log2 nFC: 1.66 | Aqp9 nFC: 3.15 | Arhgap28 log2 nFC: 1.14 | Arhgap28 nFC: 2.21 | Arl4d log2 nFC: 1.15 | Arl4d nFC: 2.23 | Arrdc2 log2 nFC: 1.24 | Arrdc2 nFC: 2.36 | Asgr1 log2 nFC: 1.80 | Asgr1 nFC: 3.49 | Baiap3 log2 nFC: 1.24 | Baiap3 nFC: 2.36 | Bbof1 log2 nFC: 1.11 | Bbof1 nFC: 2.15 | Bex2 log2 nFC: 1.46 | Bex2 nFC: 2.76 | Bpifa1 log2 nFC: 1.12 | Bpifa1 nFC: 2.18 | C130080G10Rik log2 nFC: 3.58 | C130080G10Rik nFC: 12.00 | Car3 log2 nFC: 1.57 | Car3 nFC: 2.96 | Casq2 log2 nFC: 2.36 | Casq2 nFC: 5.15 | Cbs log2 nFC: 1.38 | Cbs nFC: 2.61 | Ccdc81 log2 nFC: 1.15 | Ccdc81 nFC: 2.23 | Cd300lg log2 nFC: 1.18 | Cd300lg nFC: 2.27 | Chia1 log2 nFC: 1.16 | Chia1 nFC: 2.24 | Chrdl1 log2 nFC: 1.39 | Chrdl1 nFC: 2.62 | Cidec log2 nFC: 1.57 | Cidec nFC: 2.96 | Ckm log2 nFC: 2.32 | Ckm nFC: 5.00 | Ckmt2 log2 nFC: 2.73 | Ckmt2 nFC: 6.63 | Colq log2 nFC: 1.81 | Colq nFC: 3.52 | Cox6a2 log2 nFC: 1.42 | Cox6a2 nFC: 2.68 | Crtc2 log2 nFC: 1.47 | Crtc2 nFC: 2.76 | Csf3r log2 nFC: 1.69 | Csf3r nFC: 3.22 | Csrp3 log2 nFC: 2.07 | Csrp3 nFC: 4.19 | Cst8 log2 nFC: 1.41 | Cst8 nFC: 2.66 | Cxcl5 log2 nFC: 1.80 | Cxcl5 nFC: 3.49 | Cxcr2 log2 nFC: 1.19 | Cxcr2 nFC: 2.28 | Cyp2a5 log2 nFC: 1.66 | Cyp2a5 nFC: 3.15 | Cyp4b1 log2 nFC: 1.18 | Cyp4b1 nFC: 2.26 | Cytl1 log2 nFC: 1.67 | Cytl1 nFC: 3.18 | D630024D03Rik log2 nFC: 1.60 | D630024D03Rik nFC: 3.03 | Dpysl5 log2 nFC: 1.90 | Dpysl5 nFC: 3.73 | Ear1 log2 nFC: 1.11 | Ear1 nFC: 2.16 | Eml5 log2 nFC: 1.41 | Eml5 nFC: 2.65 | Esm1 log2 nFC: 1.28 | Esm1 nFC: 2.43 | Fabp12 log2 nFC: 1.43 | Fabp12 nFC: 2.69 | Faim2 log2 nFC: 2.03 | Faim2 nFC: 4.10 | Fam71f2 log2 nFC: 1.96 | Fam71f2 nFC: 3.88 | Fosb log2 nFC: 2.38 | Fosb nFC: 5.20 | Ggt1 log2 nFC: 1.91 | Ggt1 nFC: 3.77 | Gm867 log2 nFC: 2.18 | Gm867 nFC: 4.53 | Gm4956 log2 nFC: 1.08 | Gm4956 nFC: 2.12 | Gm9780 log2 nFC: 2.06 | Gm9780 nFC: 4.18 | Gm14964 log2 nFC: 1.87 | Gm14964 nFC: 3.65 | Gm20186 log2 nFC: 1.31 | Gm20186 nFC: 2.48 | Gm42722 log2 nFC: 1.79 | Gm42722 nFC: 3.46 | Gm49353 log2 nFC: 2.21 | Gm49353 nFC: 4.62 | Gnmt log2 nFC: 1.14 | Gnmt nFC: 2.20 | Gpat3 log2 nFC: 1.34 | Gpat3 nFC: 2.54 | Gria1 log2 nFC: 1.61 | Gria1 nFC: 3.05 | Gsta3 log2 nFC: 1.10 | Gsta3 nFC: 2.15 | Gzma log2 nFC: 1.70 | Gzma nFC: 3.26 | Hba-a1 log2 nFC: 1.21 | Hba-a1 nFC: 2.32 | Hba-a2 log2 nFC: 1.14 | Hba-a2 nFC: 2.21 | Hbb-bs log2 nFC: 1.10 | Hbb-bs nFC: 2.15 | Hbb-bt log2 nFC: 1.09 | Hbb-bt nFC: 2.13 | Hhatl log2 nFC: 2.05 | Hhatl nFC: 4.14 | Hpgd log2 nFC: 1.63 | Hpgd nFC: 3.10 | Igfbp3 log2 nFC: 1.75 | Igfbp3 nFC: 3.37 | Igfbp6 log2 nFC: 1.68 | Igfbp6 nFC: 3.21 | Inmt log2 nFC: 1.34 | Inmt nFC: 2.54 | Itga2b log2 nFC: 1.10 | Itga2b nFC: 2.15 | Kcne2 log2 nFC: 1.32 | Kcne2 nFC: 2.50 | Klf15 log2 nFC: 1.42 | Klf15 nFC: 2.67 | Klrc1 log2 nFC: 1.38 | Klrc1 nFC: 2.61 | Krt79 log2 nFC: 1.75 | Krt79 nFC: 3.36 | Ldb3 log2 nFC: 1.52 | Ldb3 nFC: 2.86 | Lrat log2 nFC: 1.15 | Lrat nFC: 2.22 | Mb log2 nFC: 2.27 | Mb nFC: 4.81 | Mir6979 log2 nFC: 1.18 | Mir6979 nFC: 2.26 | Mmp9 log2 nFC: 1.20 | Mmp9 nFC: 2.30 | Mpp3 log2 nFC: 1.65 | Mpp3 nFC: 3.14 | Ms4a4d log2 nFC: 1.15 | Ms4a4d nFC: 2.21 | Mybpc3 log2 nFC: 2.06 | Mybpc3 nFC: 4.18 | Mybphl log2 nFC: 2.33 | Mybphl nFC: 5.04 | Myh6 log2 nFC: 2.62 | Myh6 nFC: 6.14 | Myh7 log2 nFC: 2.22 | Myh7 nFC: 4.68 | Myl4 log2 nFC: 1.94 | Myl4 nFC: 3.85 | Myl7 log2 nFC: 1.90 | Myl7 nFC: 3.73 | Mylk3 log2 nFC: 2.03 | Mylk3 nFC: 4.08 | Myom2 log2 nFC: 1.87 | Myom2 nFC: 3.67 | Ngp log2 nFC: 2.72 | Ngp nFC: 6.57 | Nhlrc1 log2 nFC: 1.34 | Nhlrc1 nFC: 2.53 | Npr3 log2 nFC: 1.53 | Npr3 nFC: 2.88 | Nr4a3 log2 nFC: 1.63 | Nr4a3 nFC: 3.09 | Nrn1 log2 nFC: 1.84 | Nrn1 nFC: 3.59 | Numb log2 nFC: 1.49 | Numb nFC: 2.80 | Pdk4 log2 nFC: 1.64 | Pdk4 nFC: 3.11 | Phf24 log2 nFC: 1.57 | Phf24 nFC: 2.97 | Pln log2 nFC: 2.30 | Pln nFC: 4.92 | Pmvk log2 nFC: 1.09 | Pmvk nFC: 2.13 | Ppbp log2 nFC: 1.09 | Ppbp nFC: 2.13 | Ppp4r4 log2 nFC: 1.26 | Ppp4r4 nFC: 2.40 | Pram1 log2 nFC: 1.64 | Pram1 nFC: 3.12 | Prf1 log2 nFC: 1.34 | Prf1 nFC: 2.53 | Prmt8 log2 nFC: 1.27 | Prmt8 nFC: 2.41 | Pwwp3b log2 nFC: 1.22 | Pwwp3b nFC: 2.33 | Rab44 log2 nFC: 1.61 | Rab44 nFC: 3.05 | Rassf10 log2 nFC: 1.19 | Rassf10 nFC: 2.28 | Rbfox3 log2 nFC: 1.26 | Rbfox3 nFC: 2.40 | Rbm24 log2 nFC: 1.20
